Laboratory results taken from patent publication US20100119599A1 (ARCHER PHARMACEUTICALS, INC., priority 2006, published 2010).

Legend:
Aβ1-40 = assay: Measurement of Aβ1-40 in culture medium of 7W WT APP751 CHO cells by ELISA; format: cell-based, Chinese hamster; settings: for activity at 5 µM: Cricetulus griseus, Table 1, 5 μM test compound, CHO cells stably transfected with human APP751, culture medium, ELISA, control DMSO, 0 = no detectable amount; for Aβ1-40 (% of control): CHO cells that overexpress APP751, zero = below the detection limit of the assay
Aβ1-42 = assay: Measurement of Aβ1-42 in culture medium of 7W WT APP751 CHO cells by ELISA; format: cell-based, Chinese hamster; settings: for activity at 5 µM: Cricetulus griseus, Table 1, 5 μM test compound, CHO cells stably transfected with human APP751, culture medium, ELISA, control DMSO, 0 = no detectable amount, read-out: Aβ1-42 (% of control); for Aβ1-42 (% of control): CHO cells that overexpress APP751, zero = below the detection limit of the assay
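Note: 5 µM test compound but RI-coded compounds at 10 µM for 24 hours.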

Structure (SMILES)	activity at 5 µM (Aβ1-40) [%]	activity at 5 µM (Aβ1-42) [%]	Aβ1-40 (% of control) (Aβ1-40)	Aβ1-42 (% of control) (Aβ1-42)
CCOC(=O)C1=C(C)NC2=C(C(=O)CC(c3ccccc3)C2)C1c1cc(OC)ccc1OC (stereo not drawn) [ST015254, ethyl 4-(2,5-dimethoxyphenyl)-2-methyl-5-oxo-7-phenyl-1,4,6,7,8-pentahydroquinoline-3-carboxylate]	46.9	33.8		
CCC(C)OC(=O)C1=C(C)NC2=C(C(=O)CC(c3ccccc3)C2)C1c1ccc(Cl)c(Cl)c1 (stereo not drawn) [ST017319, methylpropyl 4-(3,4-dichlorophenyl)-2-methyl-5-oxo-7-phenyl-1,4,6,7,8-pentahydroquinoline-3-carboxylate]	26.8	97.5		
COc1ccccc1C1C(C(=O)OCCOc2ccccc2)=C(C)NC2=C1C(=O)CC(C)(C)C2 (stereo not drawn) [ST015108, 2-phenoxyethyl 4-(2-methoxyphenyl)-2,7,7-trimethyl-5-oxo-1,4,6,7,8-pentahydroquinoline-3-carboxylate]	33	92.1		
N#CC1=C(N)n2c(s/c(=C\c3cc(Br)ccc3O)c2=O)=C(C#N)C1c1cc(Br)ccc1O (stereo not drawn) [ST025030, 5-amino-7-(5-bromo-2-hydroxyphenyl)-2-[(5-bromo-2-hydroxyphenyl)methylene]-3-oxo-4,7-dihydro-1,3-thiazolidino[3,2-a]pyridine-6,8-dicarbonitrile]			39.29 % of control	33.93 % of control
COCCOC(=O)C1=C(C)NC2=C(C(=O)CCC2)C1c1ccccc1OC (stereo not drawn) [ST013365, 2-methoxyethyl 4-(2-methoxyphenyl)-2-methyl-5-oxo-1,4,6,7,8-pentahydroquinoline-3-carboxylate]	84.5	56		
CC1=C(C(=O)Nc2ccccc2)C(c2ccsc2)C(C#N)=C(SCC(=O)Nc2ccc(F)cc2)N1 (stereo not drawn) [RI_77]			16.9 % of control	25.4 % of control
CC1=C(C(=O)OCCc2ccccc2)C(c2ccc(C(F)(F)F)cc2)C2=C(CCCC2=O)N1 (stereo not drawn) [ST052320, 2-phenylethyl 2-methyl-5-oxo-4-[4-(trifluoromethyl)phenyl]-1,4,6,7,8-pentahydroquinoline-3-carboxylate]	9.44	0		
CC1=C(C(=O)Nc2ccccc2)C(c2cccs2)C(C#N)=C(SCC(=O)Nc2ccc(C)cc2)N1 (stereo not drawn) [RI_50]			55.2 % of control	38.2 % of control
CCCCCOC(=O)C1=C(C)NC2=C(C(=O)CCC2)C1c1ccc(OC)c(OC)c1OC (stereo not drawn) [ST013346, pentyl 2-methyl-5-oxo-4-(2,3,4-trimethoxyphenyl)-1,4,6,7,8-pentahydroquinoline-3-carboxylate]	16.3	77.7		
CCc1ccc(C2C(C(=O)OC3CCCCC3)=C(C)NC3=C2C(=O)CC(c2ccccc2)C3)cc1 (stereo not drawn) [ST013389, cyclohexyl 4-(4-ethylphenyl)-2-methyl-5-oxo-7-phenyl-1,4,6,7,8-pentahydroquinoline-3-carboxylate]	37.4	94.4		
CC1=C(C(=O)Nc2ccccc2)C(c2cccs2)C(C#N)=C(SCC(=O)Nc2ccc(C)c(Cl)c2)N1 (stereo not drawn) [ST050842, N-(3-chloro-4-methylphenyl)-2-[3-cyano-6-methyl-5-(N-phenylcarbamoyl)-4-(2-thienyl)(2-1,4-dihydropyridylthio)]acetamide]			37.46 % of control	52.06 % of control
COc1ccc(COC(=O)C2=C(C)NC3=C(C(=O)CC(C)(C)C3)C2c2ccc(Cl)c([N+](=O)[O-])c2)cc1 (stereo not drawn) [ST052357, (4-methoxyphenyl)methyl 4-(4-chloro-3-nitrophenyl)-2,7,7-trimethyl-5-oxo-1,4,6,7,8-pentahydroquinoline-3-carboxylate]	13.3	23.4		
CCCOC(=O)C1=C(C)NC2=C(C(=O)CCC2)C1c1cccc(O)c1 (stereo not drawn) [ST014959, propyl 4-(3-hydroxyphenyl)-2-methyl-5-oxo-1,4,6,7,8-pentahydroquinoline-3-carboxylate]	64	70.2		
COc1ccc(C2C(C(=O)OC3CCCC3)=C(C)NC3=C2C(=O)CC(c2cccs2)C3)c(OC)c1OC (stereo not drawn) [ST051571, cyclopentyl 2-methyl-5-oxo-7-(2-thienyl)-4-(2,3,4-trimethoxyphenyl)-1,4,6,7,8-pentahydroquinoline-3-carboxylate]	40.4	62.1		
N#CC1=C(N)N(c2ccc(F)cc2)C2=C(C(=O)CC(c3ccccc3)C2)C1c1ccsc1 (stereo not drawn) [ST040993, 2-amino-1-(4-fluorophenyl)-5-oxo-7-phenyl-4-(3-thienyl)-1,4,6,7,8-pentahydroquinoline-3-carbonitrile]	65.7	46.9		
COC(=O)C1=C(C)NC2=C(C(=O)CC(c3ccc(Cl)cc3)C2)C1c1ccc(C)cc1 (stereo not drawn) [ST015214, methyl 7-(4-chlorophenyl)-2-methyl-4-(4-methylphenyl)-5-oxo-1,4,6,7,8-pentahydroquinoline-3-carboxylate]	60.7	66.7		
COC(=O)C1=C(C)NC(C)=C(C(=O)OC)C1c1cccc(Br)c1 [ST208634, methyl 4-(3-bromophenyl)-5-(methoxycarbonyl)-2,6-dimethyl-1,4-dihydropyridine-3-carboxylate]			80.5 % of control	32.51 % of control
CCOC(=O)C1=C(C)NC2=C(C(=O)CCC2)C1c1ccc(OC)cc1OC (stereo not drawn) [ST013213, ethyl 4-(2,4-dimethoxyphenyl)-2-methyl-5-oxo-1,4,6,7,8-pentahydroquinoline-3-carboxylate]	78.2	69.3		
COc1ccccc1C1C(C(=O)OC2CCCC2)=C(C)NC2=C1C(=O)CC(c1ccccc1)C2 (stereo not drawn) [ST017176, cyclopentyl 4-(2-methoxyphenyl)-2-methyl-5-oxo-7-phenyl-1,4,6,7,8-pentahydroquinoline-3-carboxylate]	34.2	49.8		
CC1=C(C(=O)OC2CCCCC2)C(c2ccc(Cl)cc2)C2=C(CC(c3ccccc3)CC2=O)N1 (stereo not drawn) [ST013352, cyclohexyl 4-(4-chlorophenyl)-2-methyl-5-oxo-7-phenyl-1,4,6,7,8-pentahydroquinoline-3-carboxylate]	22.4	84		
CC1=C(C(=O)Nc2ccccc2)C(c2cccs2)C(C#N)=C(SCC(=O)Nc2cc(C)ccc2C)N1 (stereo not drawn) [RI_93]			42.6 % of control	58 % of control
CCCCCOC(=O)C1=C(C)NC2=C(C(=O)CC(C)(C)C2)C1c1ccc2c(c1)OCO2 (stereo not drawn) [ST216581, pentyl 4-(2H-benzo[3,4-d]1,3-dioxolan-5-yl)-2,7,7-trimethyl-5-oxo-1,4,6,7,8-pentahydroquinoline-3-carboxylate]	28.6	41.6		
CCOC(=O)C1=C(C)NC2=C(C(=O)CCC2)C1c1ccc(Br)cc1 (stereo not drawn) [ST211289, ethyl 4-(4-bromophenyl)-2-methyl-5-oxo-1,4,6,7,8-pentahydroquinoline-3-carboxylate]	89.1	63.6		
CCOCCOC(=O)C1=C(C)NC2=C(C(=O)CC(c3ccccc3)C2)C1c1ccccc1F (stereo not drawn) [ST017312, 2-ethoxyethyl 4-(2-fluorophenyl)-2-methyl-5-oxo-7-phenyl-1,4,6,7,8-pentahydroquinoline-3-carboxylate]	15.3	71.2		
